These results are taken from PubChem BioAssay (NCI).

“And” between values parts separate entries of the source, which are not always exact repeats. Equal values may be shown once.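 Growth conditions: 96-well plates. Treatment: test compound, 48 hours, 5 concentrations. Analysis: linear interpolation between bracketing concentrations; unreached endpoints set to highest concentration. Abbreviation: GI50, concentration required for 50% inhibition of growth. At the TGI there is no net growth.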

Among the test systems are OVCAR-8 ovarian; MOLT-4 leukemia; DU-145 prostate; T-47D breast; NCI-H522 lung; SW-620 colon; HCC-2998 colon; M14 melanoma.
Common to all, as to experiment: NCI-60 cell line screen, 48 h

Turning to `C=C(C)[C@@H]1CC[C@]2(COC(=O)c3ccccc3C(=O)O)CC[C@]3(C)[C@H](CC[C@@H]4[C@@]5(C)CC[C@H](OC(=O)c6ccccc6C(=O)O)C(C)(C)[C@@H]5CC[C@]43C)[C@@H]12`, the GI50 with OVCAR-8 ovarian is 42.6 µM; with MOLT-4 leukemia it was 56.7 µM; with DU-145 prostate it was 32.8 µM; with T-47D breast, 19.7 µM; in the assay with NCI-H522 lung it was 22.8 µM; in the assay with SW-620 colon, 97.7 µM. Also, the GI50 in the assay on HCC-2998 colon is 74.3 µM; with M14 melanoma, 44.9 µM. Besides, the TGI in the assay on OVCAR-8 ovarian was greater than 100 µM; with MOLT-4 leukemia it was greater than 100 µM; in the assay with DU-145 prostate, greater than 100 µM; with T-47D breast, 75.8 µM; with NCI-H522 lung it was 96.9 µM; in the assay on SW-620 colon it was greater than 100 µM. Moreover, the TGI with HCC-2998 colon and with M14 melanoma was greater than 100 µM throughout.
In the case of `CCOC(=O)CC1C(CNC(=O)NC)OC(n2cnc3c(NC(=O)Nc4ccccc4)ncnc32)C1O[Si](C)(C)C(C)(C)C` (configuration not stated), the GI50 in the assay with OVCAR-8 ovarian is 4.92 µM; in the assay on MOLT-4 leukemia it was 2.39 µM; in the assay on DU-145 prostate, 4.97 µM; in the assay on T-47D breast, 2.55 µM; with NCI-H522 lung, 4.36 µM; in the assay on SW-620 colon, 4.8 µM. The GI50 is greater than 100 µM in the assay with HCC-2998 colon and 2.51 µM with M14 melanoma. Further, the TGI in the assay on OVCAR-8 ovarian was 77.2 µM; with MOLT-4 leukemia, 23.3 µM; in the assay on DU-145 prostate it was 19.4 µM; in the assay on T-47D breast, greater than 100 µM; in the assay on NCI-H522 lung, 85.7 µM; in the assay on SW-620 colon, 28.4 µM. Also, the values for the TGI in the assay on HCC-2998 colon and with M14 melanoma were greater than 100 µM and 11.6 µM, respectively.
For `O=C(Oc1c(Cl)c(Cl)c(Cl)c(Cl)c1Cl)C1CCCN1C(=O)OCc1ccccc1` (configuration not stated), the GI50 in the assay on OVCAR-8 ovarian was 3.43 µM; in the assay with MOLT-4 leukemia it was 3.1 µM; in the assay on DU-145 prostate, 4.49 µM; in the assay with T-47D breast, 2.79 µM; in the assay on NCI-H522 lung, 2.47 µM; with SW-620 colon, 3.44 µM. Also, the results for the GI50 in the assay with HCC-2998 colon and with M14 melanoma were 4.36 µM and 4 µM, respectively. Further, the TGI in the assay on OVCAR-8 ovarian worked out at 15.9 µM; in the assay with MOLT-4 leukemia, 9.07 µM; with DU-145 prostate, 20 µM; with T-47D breast it was 11.3 µM; with NCI-H522 lung it was 6.84 µM; in the assay with SW-620 colon, 14.4 µM. The TGI in the assay with HCC-2998 colon came to 14.9 µM; with M14 melanoma, 16.4 µM.
For `O=CCC(O)C(O)C(O)CO` (configuration not stated), the GI50 with OVCAR-8 ovarian, in the assay on MOLT-4 leukemia, with DU-145 prostate, in the assay with T-47D breast, with NCI-H522 lung and with SW-620 colon was greater than 100 µM throughout. The GI50 with HCC-2998 colon and with M14 melanoma was greater than 100 µM throughout. The TGI in the assay on OVCAR-8 ovarian, with MOLT-4 leukemia, in the assay on DU-145 prostate, in the assay with T-47D breast, in the assay on NCI-H522 lung and in the assay with SW-620 colon was greater than 100 µM each time. For the same compound, the TGI with HCC-2998 colon and in the assay on M14 melanoma was greater than 100 µM each time.
As for `COc1ccc2c(ccc3oc([N+](=O)[O-])cc32)c1`, the GI50 with OVCAR-8 ovarian was 0.18 µM; in the assay on MOLT-4 leukemia, 0.0378 µM; with DU-145 prostate, 0.191 µM; in the assay on T-47D breast it was 0.448 µM; in the assay with NCI-H522 lung, 0.0952 µM; with SW-620 colon, 0.178 µM. Also, the GI50 in the assay with HCC-2998 colon is 0.177 µM; in the assay on M14 melanoma, 0.0454 µM. Also, the TGI stood at 1.2 µM in the assay on OVCAR-8 ovarian; 2.69 µM with MOLT-4 leukemia; 1.14 µM with DU-145 prostate; 8.05 µM in the assay on T-47D breast; 0.319 µM in the assay on NCI-H522 lung; 10.8 µM in the assay with SW-620 colon. For the same compound, the results for the TGI in the assay with HCC-2998 colon and in the assay on M14 melanoma were 0.418 µM and 0.186 µM, respectively.
For the compound `CSc1ccc(NC(=O)CCl)cc1`, the TGI is greater than 10 µM in the assay on OVCAR-8 ovarian; greater than 10 µM in the assay with MOLT-4 leukemia; greater than 10 µM with DU-145 prostate; greater than 10 µM with T-47D breast; 6.82 µM with NCI-H522 lung; greater than 10 µM in the assay with SW-620 colon. Further, the TGI with HCC-2998 colon turned out to be 7.19 µM; in the assay on M14 melanoma, 3.73 µM.
For the compound `O=C(Cc1ccc(-c2ccc(OCCN3CCOCC3)cc2)cn1)NCc1ccccc1`, the GI50 in the assay with OVCAR-8 ovarian was 0.0466 µM and 0.0493 µM; with MOLT-4 leukemia, 0.0999 µM and 0.0685 µM; in the assay with DU-145 prostate, 0.0324 µM and 0.0387 µM; with NCI-H522 lung, 0.0223 µM and 0.0242 µM; in the assay on SW-620 colon, 0.0376 µM and 0.0388 µM; in the assay with HCC-2998 colon, 0.0316 µM and 0.166 µM. In the assay on M14 melanoma, the GI50 was 0.0285 µM. Also, the TGI in the assay with OVCAR-8 ovarian was greater than 36.2 µM; with MOLT-4 leukemia, greater than 100 µM; in the assay with T-47D breast, 55.9 µM and > 10 µM; in the assay on NCI-H522 lung it was 0.0831 µM; in the assay with SW-620 colon, greater than 100 µM; in the assay on M14 melanoma it was 1.76 µM.
Take `O=C1c2ccccc2-c2c1c1ccc([N+](=O)[O-])cc1c(=O)n2CCN1CCOCC1`: the GI50 is greater than 100 µM in the assay on OVCAR-8 ovarian; 48.8 µM with MOLT-4 leukemia; 61 µM in the assay on DU-145 prostate; 78.4 µM in the assay on T-47D breast; greater than 100 µM in the assay with NCI-H522 lung; 40.5 µM with SW-620 colon. The GI50 in the assay with HCC-2998 colon and in the assay with M14 melanoma was greater than 100 µM each time. Besides, the TGI with OVCAR-8 ovarian, in the assay with MOLT-4 leukemia, in the assay with DU-145 prostate, in the assay on T-47D breast, with NCI-H522 lung and in the assay on SW-620 colon was greater than 100 µM in each case. In addition, the TGI with HCC-2998 colon and in the assay with M14 melanoma was greater than 100 µM each time.
`COc1cc(-c2cn(-c3ccc(F)cc3)c(=O)[nH]2)cc(OC)c1OC`: the GI50 with OVCAR-8 ovarian, with MOLT-4 leukemia, in the assay on DU-145 prostate, in the assay with T-47D breast, in the assay with NCI-H522 lung and in the assay on SW-620 colon was greater than 100 µM in each case. Also, the GI50 in the assay on HCC-2998 colon and with M14 melanoma was greater than 100 µM each time. In addition, the TGI in the assay on OVCAR-8 ovarian, in the assay with MOLT-4 leukemia, with DU-145 prostate, in the assay on T-47D breast, in the assay with NCI-H522 lung and with SW-620 colon was greater than 100 µM each time. In addition, the TGI in the assay on HCC-2998 colon and in the assay with M14 melanoma was greater than 100 µM throughout.
Consider `O=C1Nc2cc(-c3ccc(O)cc3)ccc2/C1=C/c1ccc[nH]1`, for which the GI50 is 0.524 µM in the assay with OVCAR-8 ovarian; 0.158 µM in the assay with MOLT-4 leukemia; 0.815 µM with DU-145 prostate; 0.0591 µM with T-47D breast; 0.258 µM in the assay with NCI-H522 lung; 0.0746 µM with SW-620 colon. Further, the values for the GI50 in the assay on HCC-2998 colon and in the assay with M14 melanoma were 0.511 µM and 0.0974 µM, respectively. Further, the TGI in the assay with OVCAR-8 ovarian was greater than 100 µM; in the assay on MOLT-4 leukemia it was greater than 32.5 µM; in the assay with DU-145 prostate, greater than 36.4 µM; in the assay on NCI-H522 lung it was greater than 20.1 µM; with SW-620 colon, greater than 100 µM; with HCC-2998 colon, greater than 100 µM. This compound registered a TGI with M14 melanoma greater than 100 µM.
For the compound `CCN(CC)CCC(CNc1c(C)cnc2cc(Cl)ccc12)c1ccc(Cl)c(Cl)c1` (configuration not stated), the GI50 in the assay with OVCAR-8 ovarian is 9.89 µM; in the assay with MOLT-4 leukemia it was 2.88 µM; in the assay on DU-145 prostate, 9.2 µM; with T-47D breast, 2.22 µM; in the assay on NCI-H522 lung, 3.78 µM; with SW-620 colon it was 2.14 µM. Moreover, the GI50 in the assay on HCC-2998 colon is 1.77 µM; in the assay with M14 melanoma it was 1.82 µM. Moreover, the TGI was determined as 24.9 µM in the assay on OVCAR-8 ovarian; 10.1 µM with MOLT-4 leukemia; 22 µM in the assay on DU-145 prostate; 7.08 µM with T-47D breast; 16 µM with NCI-H522 lung; 7 µM in the assay with SW-620 colon. The results for the TGI in the assay with HCC-2998 colon and in the assay on M14 melanoma were 3.36 µM and 3.63 µM, respectively.
For `COc1ccc2cn3c4ccc(O)cc4[nH]c(=O)c3c2c1`, the GI50 in the assay on OVCAR-8 ovarian is 0.302 µM; in the assay on MOLT-4 leukemia, 0.308 µM; in the assay on DU-145 prostate, 0.298 µM; in the assay on T-47D breast, 0.573 µM; in the assay with NCI-H522 lung, 0.031 µM; in the assay with SW-620 colon it was 0.047 µM. Besides, the results for the GI50 in the assay on HCC-2998 colon and with M14 melanoma were 0.301 µM and 0.08 µM, respectively. Besides, the TGI in the assay with OVCAR-8 ovarian is 18.1 µM; in the assay with MOLT-4 leukemia, 16.7 µM; in the assay with DU-145 prostate, 15.5 µM; with T-47D breast, 24.1 µM; with NCI-H522 lung, 1.05 µM; with SW-620 colon it was 13.7 µM. The TGI in the assay with HCC-2998 colon was 6.75 µM; with M14 melanoma, 13.7 µM.
As for `Clc1ccc2c(NCCNc3nc(N4CCCCC4)nc4ccccc34)ccnc2c1`, the GI50 in the assay on OVCAR-8 ovarian was 2.17 µM; with MOLT-4 leukemia, 2.29 µM; with DU-145 prostate it was 3.24 µM; in the assay with T-47D breast, 2.17 µM; with NCI-H522 lung, 1.75 µM; in the assay on SW-620 colon, 1.34 µM. Moreover, the GI50 is 2.22 µM in the assay with HCC-2998 colon and 1.82 µM with M14 melanoma. In addition, the TGI worked out at 5.18 µM in the assay on OVCAR-8 ovarian; 11.8 µM in the assay on MOLT-4 leukemia; 12.9 µM with DU-145 prostate; 6.11 µM with T-47D breast; 3.85 µM with NCI-H522 lung; 3.33 µM with SW-620 colon. In addition, the TGI in the assay with HCC-2998 colon worked out at 6.26 µM; in the assay on M14 melanoma, 3.61 µM.
With `COc1ccc(/C=N/C2=NNC(C)(c3ccccc3O)N2C(Cc2c[nH]c3ccccc23)C(=O)O)cc1` (configuration not stated), the GI50 is 3.23 µM with OVCAR-8 ovarian; 3 µM in the assay with MOLT-4 leukemia; 4.13 µM in the assay on DU-145 prostate; 1.55 µM in the assay on T-47D breast; 2.49 µM in the assay with NCI-H522 lung; 3.17 µM in the assay on SW-620 colon. In addition, the values for the GI50 with HCC-2998 colon and with M14 melanoma were 3.53 µM and 2.35 µM, respectively. For the same compound, the TGI was 16 µM in the assay on OVCAR-8 ovarian; 13.9 µM in the assay with MOLT-4 leukemia; 17.8 µM in the assay with DU-145 prostate; 12.2 µM in the assay with T-47D breast; 10 µM with NCI-H522 lung; 12.1 µM with SW-620 colon. For the same compound, the TGI worked out at 13.3 µM in the assay on HCC-2998 colon and 8.77 µM with M14 melanoma.
